These results are taken from US12441736B2, “KIF18A inhibitors” (AMGEN INC., priority 2018, dated 2025).

This assay deals with T1, Recombinant human KIF18A (1-467 His-tagged) protein (Homo sapiens, UniProt Q8NI77).
T1 construct: Recombinant human KIF18A (1-467 His-tagged) protein; His; made in house
T1 sequence (Q8NI77 1-467): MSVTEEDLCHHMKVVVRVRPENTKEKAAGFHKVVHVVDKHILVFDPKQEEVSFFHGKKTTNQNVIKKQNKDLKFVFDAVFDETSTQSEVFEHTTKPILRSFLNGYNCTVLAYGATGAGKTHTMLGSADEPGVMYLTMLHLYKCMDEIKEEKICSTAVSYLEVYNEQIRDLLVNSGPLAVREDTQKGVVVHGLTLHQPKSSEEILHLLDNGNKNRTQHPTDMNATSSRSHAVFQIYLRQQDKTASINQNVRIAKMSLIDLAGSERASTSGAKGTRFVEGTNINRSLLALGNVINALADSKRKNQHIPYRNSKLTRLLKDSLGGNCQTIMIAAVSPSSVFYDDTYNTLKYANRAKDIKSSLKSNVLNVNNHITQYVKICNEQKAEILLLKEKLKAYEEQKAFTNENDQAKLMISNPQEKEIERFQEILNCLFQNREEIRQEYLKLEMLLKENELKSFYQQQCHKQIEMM
T1 sequence (P02550 whole entry partner): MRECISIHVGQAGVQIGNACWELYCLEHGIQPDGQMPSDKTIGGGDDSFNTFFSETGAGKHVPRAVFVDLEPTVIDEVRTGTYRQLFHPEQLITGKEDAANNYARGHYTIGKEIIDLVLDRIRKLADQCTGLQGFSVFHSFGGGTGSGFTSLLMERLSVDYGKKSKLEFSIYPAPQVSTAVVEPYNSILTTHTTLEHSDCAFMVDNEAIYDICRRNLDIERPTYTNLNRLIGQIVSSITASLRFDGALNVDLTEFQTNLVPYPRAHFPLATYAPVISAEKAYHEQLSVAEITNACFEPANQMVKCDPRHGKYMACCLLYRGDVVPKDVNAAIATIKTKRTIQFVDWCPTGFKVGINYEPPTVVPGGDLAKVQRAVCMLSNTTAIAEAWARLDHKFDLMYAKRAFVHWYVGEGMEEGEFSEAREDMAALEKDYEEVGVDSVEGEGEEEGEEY
T1 sequence (P02554 whole entry partner): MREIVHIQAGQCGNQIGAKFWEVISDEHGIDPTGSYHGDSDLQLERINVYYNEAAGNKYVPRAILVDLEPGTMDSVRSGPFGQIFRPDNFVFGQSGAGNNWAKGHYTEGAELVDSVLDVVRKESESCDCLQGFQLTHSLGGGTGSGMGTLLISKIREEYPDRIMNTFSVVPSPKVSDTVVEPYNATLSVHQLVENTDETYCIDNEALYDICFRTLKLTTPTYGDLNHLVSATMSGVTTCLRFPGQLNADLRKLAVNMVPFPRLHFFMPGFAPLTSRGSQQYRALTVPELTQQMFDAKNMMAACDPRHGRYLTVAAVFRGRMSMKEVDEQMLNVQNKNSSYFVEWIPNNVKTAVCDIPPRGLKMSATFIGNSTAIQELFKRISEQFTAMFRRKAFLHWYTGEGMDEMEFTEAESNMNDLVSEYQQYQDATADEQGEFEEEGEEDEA
The experiment in a line: KIF18A Enzyme Assay: microtubule-stimulated ATPase activity (ADP-Glo). Type of assay: biochemical. Conditions: 30 nM KIF18A, 30 μg/mL pig microtubules, 75 μM ATP, ADP-Glo luminescence. The method in brief: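 His-tagged human KIF18A (1-467, baculovirus), 30 nM, pre-incubated 15 min with compound in Tris pH 7.5 containing 30 μg/mL taxol-stabilised pig microtubules. ATP was then added at Km (75 μM) for 15 min at room temperature. ADP was measured by ADP-Glo luminescence, and IC50 was fitted by 4-parameter logistic over 22 points.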
As a reminder, the IC50 is the midpoint of a concentration-inhibition curve. `CC(C)(CO)Nc1ccc(C(=O)Nc2cccc(N3CCN(C4CC4)CC3)n2)c(N2CCC3(CC2)CC3)n1` [Example 190, 2-(6-azaspiro[2.5]octan-6-yl)-N-(6-(4-cyclopropyl-1-piperazinyl)-2-pyridinyl)-6-((1-hydroxy-2-methyl-2-propanyl)amino)-3-pyridinecarboxamide]: the IC50 amounted to 693 nM.

Turning to `CC(C)(CO)Nc1ccc(C(=O)Nc2cccc(N3CCN(C4CCC4)CC3)n2)c(N2CCC3(CC2)CC3)n1` [Example 191, 2-(6-azaspiro[2.5]octan-6-yl)-N-(6-(4-cyclobutyl-1-piperazinyl)-2-pyridinyl)-6-((1-hydroxy-2-methyl-2-propanyl)amino)-3-pyridinecarboxamide], the IC50 was 1240 nM.

For `CCN1CCN(c2cccc(NC(=O)c3ccc(NC(C)(C)CO)nc3N3CCC4(CC3)CC4)n2)CC1` [Example 192, 2-(6-azaspiro[2.5]octan-6-yl)-N-(6-(4-ethyl-1-piperazinyl)-2-pyridinyl)-6-((1-hydroxy-2-methyl-2-propanyl)amino)-3-pyridinecarboxamide], the IC50 was determined as 1090 nM.

As to `COC(=O)C(F)(C(=O)OC)c1ccc(C(=O)Nc2cccc(S(=O)(=O)NC(C)(C)C)n2)c(N2CCC3(CC2)CC3)n1` [Example 193, dimethyl (6-(6-azaspiro[2.5]octan-6-yl)-5-((6-((2-methyl-2-propanyl)sulfamoyl)-2-pyridinyl)carbamoyl)-2-pyridinyl)(fluoro)propanedioate], the IC50 amounted to 239 nM.

As for `CC(C)(C)NS(=O)(=O)c1cccc(NC(=O)c2ccc(C(F)(CO)CO)nc2N2CCC3(CC2)CC3)n1` [Example 194, 2-(6-azaspiro[2.5]octan-6-yl)-6-(2-fluoro-1,3-dihydroxy-2-propanyl)-N-(6-((2-methyl-2-propanyl)sulfamoyl)-2-pyridinyl)-3-pyridinecarboxamide], the IC50 was determined as 283 nM.

Take `CC(C)(C)NS(=O)(=O)c1cccc(NC(=O)c2ccc(C(F)CO)nc2N2CCC3(CC2)CC3)n1` (stereo not drawn) [Example 195, N-(6-(N-(tert-butyl)sulfamoyl)pyridin-2-yl)-6-(1-fluoro-2-hydroxyethyl)-2-(6-azaspiro[2.5]octan-6-yl)nicotinamide]: the IC50 was 196 nM.

On to `C[C@@H]1CN(c2cccc(NC(=O)c3ccc(C(F)(CO)CO)nc3N3CCC4(CC3)CC4)n2)CCO1` [Example 196, 2-(6-azaspiro[2.5]octan-6-yl)-6-(2-fluoro-1,3-dihydroxy-2-propanyl)-N-(6-((2R)-2-methyl-4-morpholinyl)-2-pyridinyl)-3-pyridinecarboxamide], for which the IC50 was 158 nM.

Consider `C[C@@H]1CN(c2cccc(NC(=O)c3ccc(C(F)CO)nc3N3CCC4(CC3)CC4)n2)CCO1` (stereo partly drawn) [Example 197, 6-(1-Fluoro-2-hydroxyethyl)-N-(6-((R)-2-methylmorpholino)pyridin-2-yl)-2-(6-azaspiro[2.5]octan-6-yl)nicotinamide], for which the 50% inhibitory concentration (IC50) worked out at 180 nM.

`COC(=O)C(F)(C(=O)OC)c1ccc(C(=O)Nc2cccc(N3CCO[C@H](C)C3)n2)c(N2CCC3(CC2)CC3)n1` [Example 198, dimethyl (6-(6-azaspiro[2.5]octan-6-yl)-5-((6-((2R)-2-methyl-4-morpholinyl)-2-pyridinyl)carbamoyl)-2-pyridinyl)(fluoro)propanedioate]: the IC50 amounted to 156 nM.

With `COCC(C)(C)Nc1ccc(C(=O)Nc2cccc(N3CCO[C@H](C)C3)n2)c(N2CCC3(CC2)CC3)n1` [Example 200, 2-(6-azaspiro[2.5]octan-6-yl)-6-((1-methoxy-2-methyl-2-propanyl)amino)-N-(6-((2R)-2-methyl-4-morpholinyl)-2-pyridinyl)-3-pyridinecarboxamide], the IC50 was 636 nM.

`CC(C)C1CN(c2cccc(NC(=O)c3ccc(NC(C)(C)CO)nc3N3CCC4(CC3)CC4)n2)CCO1` (stereo not drawn) [Example 203, 6-((1-hydroxy-2-methylpropan-2-yl)amino)-N-(6-(2-isopropylmorpholino)pyridin-2-yl)-2-(6-azaspiro[2.5]octan-6-yl)nicotinamide]: the concentration for half-maximal inhibition (IC50) was 242 nM.

On to `CCC1CN(c2cccc(NC(=O)c3ccc(NC(C)(C)CO)nc3N3CCC4(CC3)CC4)n2)CCO1` (stereo not drawn) [Example 204, N-(6-(2-ethylmorpholino)pyridin-2-yl)-6-((1-hydroxy-2-methylpropan-2-yl)amino)-2-(6-azaspiro[2.5]octan-6-yl)nicotinamide], for which the IC50 stood at 160 nM.

For the compound `CC(C)(CO)Nc1ccc(C(=O)Nc2cccc(N3CCOC(C(F)(F)F)C3)n2)c(N2CCC3(CC2)CC3)n1` (stereo not drawn) [Example 205, 6-((1-hydroxy-2-methylpropan-2-yl)amino)-2-(6-azaspiro[2.5]octan-6-yl)-N-(6-(2-(trifluoromethyl)morpholino)pyridin-2-yl)nicotinamide], the IC50 was 123 nM.

On to `Cc1cc(NC(=O)c2ccc(OCC(N)(CO)C(F)(F)F)nc2N2CCC3(CC2)CC3)nc(N2CCOCC2)c1` (stereo not drawn) [Example 208, 6-(2-amino-3,3,3-trifluoro-2-(hydroxymethyl)propoxy)-N-(4-methyl-6-morpholinopyridin-2-yl)-2-(6-azaspiro[2.5]octan-6-yl)nicotinamide], for which the IC50 came out at 692 nM.

`C[C@@H]1CN(c2cccc(NC(=O)c3ccc(OCCC(C)(C)N)nc3N3CCC4(CC3)CC4)n2)CCO1` [Example 209, 6-(3-amino-3-methylbutoxy)-2-(6-azaspiro[2.5]octan-6-yl)-N-(6-((2R)-2-methyl-4-morpholinyl)-2-pyridinyl)-3-pyridinecarboxamide]: the IC50 was determined as 411 nM.

Regarding `CC(C)(CCO)Nc1ccc(C(=O)Nc2cccc(N3CCO[C@H](CO)C3)n2)c(N2CCC3(CC2)CC3)n1` [Example 210, 2-(6-azaspiro[2.5]octan-6-yl)-6-((4-hydroxy-2-methyl-2-butanyl)amino)-N-(6-((2S)-2-(hydroxymethyl)-4-morpholinyl)-2-pyridinyl)-3-pyridinecarboxamide], the half-inhibitory concentration (IC50) turned out to be 239 nM.

As to `Cc1cc(NC(=O)c2ccc(NC(C)(C)CCO)nc2N2CCC3(CC2)CC3)nc(N2CCOCC2)c1` [Example 211, 2-(6-azaspiro[2.5]octan-6-yl)-6-((4-hydroxy-2-methyl-2-butanyl)amino)-N-(4-methyl-6-(4-morpholinyl)-2-pyridinyl)-3-pyridinecarboxamide], the IC50 worked out at 142 nM.

Turning to `Cc1cc(NC(=O)c2ccc(N3CC(O)CC3(C)C)nc2N2CCC3(CC2)CC3)nc(N2CCOCC2)c1` (stereo not drawn) [Example 212, 6-(4-hydroxy-2,2-dimethylpyrrolidin-l-yl)-N-(4-methyl-6-morpholinopyridin-2-yl)-2-(6-azaspiro[2.5]octan-6-yl)nicotinamide], the IC50 is 540 nM.

In the case of `C[C@@H]1CN(c2cccc(NC(=O)c3ccc(N4CC(O)CC4(C)C)nc3N3CCC4(CC3)CC4)n2)CCO1` (stereo partly drawn) [Example 213, 6-(4-hydroxy-2,2-dimethylpyrrolidin-1-yl)-N-(6-((R)-2-methylmorpholino)pyridin-2-yl)-2-(6-azaspiro[2.5]octan-6-yl)nicotinamide], the IC50 stood at 523 nM.

Regarding `C[C@@H]1CN(c2cccc(NC(=O)c3ccc(NC(C)(C)CCO)nc3N3CCC4(CC3)CC4)n2)CCO1` [Example 214, 2-(6-azaspiro[2.5]octan-6-yl)-6-((4-hydroxy-2-methyl-2-butanyl)amino)-N-(6-((2R)-2-methyl-4-morpholinyl)-2-pyridinyl)-3-pyridinecarboxamide], the IC50 was 170 nM.

Consider `CC(C)(CO)Nc1ccc(C(=O)Nc2cccc(N3CCC(O)CC3)n2)c(N2CCC3(CC2)CC3)n1` [Example 215, 2-(6-azaspiro[2.5]octan-6-yl)-6-((1-hydroxy-2-methyl-2-propanyl)amino)-N-(6-(4-hydroxy-1-piperidinyl)-2-pyridinyl)-3-pyridinecarboxamide], for which the IC50 turned out to be 330 nM.

As for `CC(C)(CO)Nc1ccc(C(=O)Nc2cccc(N3CCC[C@@H](O)C3)n2)c(N2CCC3(CC2)CC3)n1` [Example 216, 2-(6-azaspiro[2.5]octan-6-yl)-6-((1-hydroxy-2-methyl-2-propanyl)amino)-N-(6-((3R)-3-hydroxy-1-piperidinyl)-2-pyridinyl)-3-pyridinecarboxamide], the IC50 came to 80.4 nM.

On to `COCC(C)(CO)Nc1ccc(C(=O)Nc2cccc(N3CCO[C@H](C)C3)n2)c(N2CCC3(CC2)CC3)n1` (stereo partly drawn) [Example 217, 6-((1-hydroxy-3-methoxy-2-methylpropan-2-yl)amino)-N-(6-((R)-2-methylmorpholino)pyridin-2-yl)-2-(6-azaspiro[2.5]octan-6-yl)nicotinamide], for which the IC50 is 222 nM.

For `C[C@@H]1CN(c2cccc(NC(=O)c3ccc(NS(C)(=O)=O)nc3N3CCC4(CC3)CC4)n2)CCO1` [Example 218, 2-(6-azaspiro[2.5]octan-6-yl)-N-(6-((2R)-2-methyl-4-morpholinyl)-2-pyridinyl)-6-((methylsulfonyl)amino)-3-pyridinecarboxamide], the IC50 was 150 nM.

As to `CC(C)(CO)Nc1ccc(C(=O)Nc2cccc(N3CC(O)CC3(C)C)n2)c(N2CCC3(CC2)CC3)n1` (stereo not drawn) [Example 219, N-(6-(4-hydroxy-2,2-dimethylpyrrolidin-1-yl)pyridin-2-yl)-6-((1-hydroxy-2-methylpropan-2-yl)amino)-2-(6-azaspiro[2.5]octan-6-yl)nicotinamide], the IC50 was found to be 217 nM.

Take `CC(C)(CO)Nc1ccc(C(=O)Nc2cccc(N3CCC(O)C3(C)C)n2)c(N2CCC3(CC2)CC3)n1` (stereo not drawn) [Example 221, N-(6-(3-hydroxy-2,2-dimethylpyrrolidin-1-yl)pyridin-2-yl)-6-((1-hydroxy-2-methylpropan-2-yl)amino)-2-(6-azaspiro[2.5]octan-6-yl)nicotinamide]: the IC50 is 357 nM.

Regarding `C[C@@H]1CN(c2cccc(NC(=O)c3ccc(NC(CO)(CO)CO)nc3N3CCC4(CC3)CC4)n2)CCO1` [Example 222, 2-(6-azaspiro[2.5]octan-6-yl)-6-((1,3-dihydroxy-2-(hydroxymethyl)-2-propanyl)amino)-N-(6-((2R)-2-methyl-4-morpholinyl)-2-pyridinyl)-3-pyridinecarboxamide], the IC50 worked out at 88 nM.
